Assay results from US4435404A, “Carbostyril derivatives” (priority 1980, dated 1984).

Columns and labels:
[1] = tested on: collagen-induced aggregation in rabbit platelet; assay: Inhibition effect on collagen-induced aggregation in rabbit platelet; type: cell-based; conditions: Oryctolagus cuniculus, Platelet, read-out: Inhibition effect on collagen-induced aggregation
How it was run: (§1)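 Aggregation was followed by transmittance at 37 °C with 1,100 rpm stirring, using rabbit PRP preincubated 1 min with test compound. Inhibition was expressed relative to controls, with aspirin as comparator.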

[2] = tested on: ADP-induced aggregation in rabbit platelet; assay: Inhibition effect on ADP-induced aggregation in rabbit platelet; type: cell-based; conditions: Oryctolagus cuniculus, Platelet
How it was run: as §1

bastard dog = assay: Increasing effect of cerebral blood flow; type: in vivo; conditions: dosage 100 μg/kg, profunda femoris vein
Procedure: Thus, a bastard dog (male, 12-20 kg of body weight) was fixed in a prone (position) and was anesthetized with 20 mg/kg of pentobarbital sodium and made forced breathing to kept the frequency of respiration at 20 times/minutes. Then, the skull was bared and the surface bone was removed to expose the venous sinus by using grinder and the venous blood was took out from the venas which was cannulizated. The amount of venous blood flow was measured by using an electromagnetic blood flow meter and next measured by using drop-counter by measuring the number of drops of blood per 10 seconds.
The increasing effect of cerebral blood flow was calculated by comparing the number of blood drops in 30 seconds at the peak of increasement shown before and after the administration of compound to be tested. The each of compounds to be tested was dissolved in dimethylformamide and diluted with physiological saline solution and administered through a cannule being inserted into the profunda femoris vein.

[3] = tested on: Deoxycorticosteroneacetate (DOCA)/saline hypertension rats (DHR); assay: Hypotensive effect, Tail-cuff method, DHR; type: in vivo, rat; conditions: 30 mg/kg oral, mean value ± standard deviation
Procedure: Hypotensive effect of the compounds were measured by determining the maximum blood pressure of the test animals according to a procedure of Tail-cuff method.
Test animals used were the following two types.
(2) Deoxycorticosteroneacetate (DOCA)/saline hypertension rats (DHR)
Wistar strain male rats having 150-170 g of body weight, were anesthetized with ether and the left-side kidney was enucleated. One (1) week after the operation, 10 mg/kg of DOCA was injected subcutaneously once a week and 1% NaCl aqueous solution was given as drinking water. Five (5) weeks after the operation, rats having the maximum blood pressure over 150 mmHg were selected and used as test animals which were abstained from food for overnight.
Each of compounds to be tested were administered orally and the blood pressure was measured before the administration and 1, 2, 4, 6 and 8 hours after the administration. The blood pressure was measured by using Recorder (Rectihoriz type 8S, San-ei Instrument) and Electrosthygmomanometer PE-300 (Macro Bio-systems, Houston, Tex.).

Wistar strain male rats = assay: Test of increasing effect of heart rate; type: in vivo, rat; conditions: 30 mg/kg oral, 60 minutes after the administration
Procedure: Wistar strain male rats, having 180-230 g of body weight, were abstained from food for 24 hours, the electrocardiograms introduced from the second induction period were recorded on oscillograph. The heart rate was calculated from the electrocardiograms by observing them for 10 seconds several times. […] 60 Minutes after the administration, the heart rate was measured and increasing effect of the heart rate was calculated. Generally, an average heart rate of an usual Wistar strain male rat is about 320 beat/minute.

O=C(CCCOc1ccc2[nH]c(=O)ccc2c1)N(CCO)C1CCCCC1 [No. 1, 6-{3-[N-(2-hydroxyethyl)-N-cyclohexylaminocarbonyl]propoxy}carbostyril]
inhibition at 10 µM ([1]; concentration of the test compound solution 10^-5 mole): 100%
inhibition at 1 µM ([1]; concentration of the test compound solution 10^-6 mole): 100%
inhibition at 0.1 µM ([1]; concentration of the test compound solution 10^-7 mole): 60.1%
inhibition at 100 µM ([2]; concentration of the test compound solution 10^-4 mole): 100%
inhibition at 10 µM ([2]; concentration of the test compound solution 10^-5 mole, read-out: Inhibition effect on ADP-induced aggregation): 86%
inhibition at 1 µM ([2]; concentration of the test compound solution 10^-6 mole, read-out: Inhibition effect on ADP-induced aggregation): 45%
Increasing effect of cerebral blood flow (bastard dog): 89.8%
Maximum blood pressure after the administration (difference) ([3]; 1 hour): -46.0 ± 11.7 mmHg
Maximum blood pressure after the administration (difference) ([3]; 2 hours): -42.6 ± 6.5 mmHg
Maximum blood pressure after the administration (difference) ([3]; 4 hours): -37.6 ± 5.2 mmHg
Maximum blood pressure after the administration (difference) ([3]; 6 hours): -34.4 ± 10.5 mmHg
Maximum blood pressure after the administration (difference) ([3]; 8 hours): -29.0 ± 10.5 mmHg
Increasing effect of heart rate (Wistar strain male rats): 42 Beat/min.
